SMILES strings stand for the structures. Where only a bound is given, the exact number is not on record here.

The subject of test [1] is WS-1 human normal skin fibroblasts. The experiment in a line: Cytotoxicity, resazurin metabolism assay, WS-1. The test is classed as cell-based. The conditions noted are these: 48 h, mean ± SD. An excerpt: (§1) Human lung carcinoma (A-549), human colon adenocarcinoma (DLD-1), human normal fibroblasts (WS1), mice melanoma (B16-F1), Human glioma (U-251), Human hepatocellular carcinoma (HEP G2), Human prostate adenocarcinoma (PC-3), Human ovary teratocarcinoma metastatic (PA-1), Human breast adenocarcinona metastatic (MDA-MB-231), Human breast adenocarcinoma (MCF-7) and Human malignant melanoma (SK-MEL-2) cell lines were obtained from the American Type Culture Collection (ATCC). All cell lines were cultured in minimum essential medium containing Earle's salts and L-glutamine (Mediatech Cellgro, Va.), to which was added 10% fetal bovine serum (Hyclone), vitamins (1×), penicillin (100 I.U./mL) and streptomycin (100 μg/mL), essential amino acids (1×) and sodium pyruvate (1×) (Mediatech Cellgro, Va.). Cells were kept at 37° C. in a humidified environment containing 5% CO2.
(§2) Exponentially growing cells were plated in 96-well microplates (Costar, Corning Inc.) at a density of 5×10^3 cells per well in 100 μL of culture medium and were allowed to adhere for 16 hours before treatment. Increasing concentrations of each compound in DMSO (Sigma-Aldrich) were then added (100 μL per well) and the cells were incubated for 48 h. […] Cytotoxicity was assessed using resazurin (O'Brien, J. et al., Eur. J. Biochem. 2000, 267, 5421-5426) on an automated 96-well Fluoroskan Ascent F1™ plate reader (Labsystems) using excitation and emission wavelengths of 530 nm and 590 nm, respectively. Fluorescence was proportional to the cellular metabolic activity in each well. Survival percentage was defined as the fluorescence in experimental wells compared to that in control wells after subtraction of blank values. Each experiment was carried out three times in triplicata. IC50 results were expressed as mean±standard deviation.
(§3) The cytotoxicity of triterpenes (1-8) and corresponding glycosides (9-30) (Table 2 below) as well as of germanicane-type triterpenes and glycosides (31-44) (Table 3 below) was assessed towards human cancer (A-549, DLD-1), mouse melanoma (B16-F1) and human normal skin fibroblast (WS1) cell lines using the resazurin reduction test (RTT test) as previously described (O'Brien, J. et al., Eur. J. Biochem. 2000, 267, 5421-5426). Measurements of fluorescence were carried out after 48 continuous hours of contact between compounds and cells. Results presented in Tables 2 and 3 below express the concentration inhibiting 50% of the cell growth (IC50). Known for its activity against A-549, betulinic acid (3) was used as a positive control in this experimentation. […] The cytotoxic activity of some of these compounds was also assessed using the Hoechst DNA assay (Table 4 below).
(In general: Resazurin is reduced to fluorescent resorufin, in cell work by metabolically active cells.)

The test system of test [2] is B16-F1 mouse melanoma cells. The experiment in a line: Cytotoxicity, resazurin metabolism assay, B16-F1. The test is classed as cell-based. Conditions: 48 h, mean ± SD.
Source text: as §1, §2, §3

The next test deals with A-549 cells. The experiment in a line: Cytotoxicity, Hoechst DNA assay, A-549. The test is classed as cell-based, human. Conditions: ± SD.
Source text: as §1, §3

Another test deals with DLD-1 cells. Briefly: Cytotoxicity, Hoechst DNA assay, DLD-1. Type of test: cell-based, human. The conditions noted are these: ± SD.
Source text: as §1, §3

Another test has as its system WS-1 cells. The experiment in a line: Cytotoxicity, Hoechst DNA assay, WS-1. Type of test: cell-based, human. The conditions noted are these: ± SD.
Source text: as §1, §3

In test [3] the test system is DLD-1 human colorectal adenocarcinoma cells. The experiment in a line: Cytotoxicity, resazurin metabolism assay, DLD-1. Conditions: 48 h, mean ± SD. The test is classed as cell-based.
Source text: as §1, §2, §3

Test [4] concerns A-549 human lung carcinoma cells. Briefly: Cytotoxicity, resazurin metabolism assay, A-549. The test is classed as cell-based. Conditions: 48 h, mean ± SD.
Source text: as §1, §2, §3

Another test deals with B16-F1 cells. The experiment in a line: Cytotoxicity, Hoechst DNA assay, B16-F1. The test is classed as cell-based, mouse. The conditions noted are these: ± SD.
Source text: as §1, §3

By IC50 is commonly meant the concentration that inhibits the measured activity by half. Read a low IC50 as higher potency. Consider `C=C(C)[C@@H]1CC[C@]2(C(=O)OC)CC[C@]3(C)[C@H](CC[C@@H]4[C@@]5(C)CC[C@H](O)C(C)(C)[C@@H]5CC[C@]43C)[C@@H]12` [Compound 7, Methyl Betulinate], for which the IC50 is 19 ± 2 µM in test [1]; 26 ± 1 µM in test [2]; 19 ± 2 µM in the test with A-549 cells; 21 ± 1 µM in the test on DLD-1 cells; 19 ± 4 µM with WS-1 cells; 25 ± 4 µM in test [3]. Further, the IC50 in test [4] came out at 19 ± 3 µM; with B16-F1 cells, 15.7 ± 0.9 µM.

As for `C=C(C)[C@@H]1CC[C@]2(CO)CC[C@]3(C)[C@H](CC[C@@H]4[C@@]5(C)CC[C@H](O[C@@H]6O[C@H](CO)[C@@H](O)[C@H](O)[C@H]6O)C(C)(C)[C@@H]5CC[C@]43C)[C@@H]12` [Compound 12, 3-O-β-D-Glucopyranoside of Betulin], the IC50 (in test [1]; in test [2]; with A-549 cells; in the test on DLD-1 cells; with WS-1 cells; in test [3]) was greater than 200 µM throughout. For the same compound, the IC50 (in test [4]; in the test on B16-F1 cells) was greater than 200 µM each time.

In the case of `C=C(C)[C@@H]1CC[C@]2(COC(C)=O)CC[C@]3(C)[C@H](CC[C@@H]4[C@@]5(C)CC[C@H](O)C(C)(C)[C@@H]5CC[C@]43C)[C@@H]12` [Compound 5, 28-Acetoxybetulin], the half-inhibitory concentration (IC50) in test [1] stood at 44 ± 2 µM; in test [2] it was 43 ± 2 µM; with A-549 cells it was 49 ± 7 µM; in the test with DLD-1 cells it was 46 ± 5 µM; in the test on WS-1 cells, 47 ± 2 µM; in test [3] it was 56 ± 4 µM. For the same compound, the IC50 turned out to be 75 ± 7 µM in test [4] and 35 ± 1 µM in the test with B16-F1 cells.

As for `C[C@@H]1O[C@@H](O[C@H]2CC[C@]3(C)[C@H]4CC[C@@H]5[C@H]6[C@H]7OC(=O)[C@@]6(CCC7(C)C)CC[C@@]5(C)[C@]4(C)CC[C@H]3C2(C)C)[C@H](O)[C@H](O)[C@H]1O` [Compound 40, 3-O-α-L-Rhamnopyranoside of 28-Oxyallobetulin], the half-maximal inhibitory concentration (IC50) in test [1], in test [3] and in test [4] was greater than 100 µM throughout.

`CC1(C)CC[C@]23CC[C@]4(C)[C@H](CC[C@@H]5[C@@]6(C)CC[C@H](O)C(C)(C)[C@@H]6CC[C@]54C)[C@H]2[C@H]1OC3=O` [Compound 32, 28-Oxyallobetulin]: the half-maximal inhibitory concentration (IC50) was 70 ± 9 µM in test [1], greater than 100 µM in test [3] and greater than 100 µM in test [4].

Take `CC1(C)CC[C@]23CC[C@]4(C)[C@H](CC[C@@H]5[C@@]6(C)CC[C@H](O[C@H]7O[C@H](CO)[C@@H](O)[C@H](O)[C@@H]7O)C(C)(C)[C@@H]6CC[C@]54C)[C@H]2[C@H]1OC3` [Compound 37, 3-O-α-D-Mannopyranoside of Allobetulin]: the IC50 in test [1], in test [3] and in test [4] was greater than 100 µM in each case.

Turning to `CC1(C)CC[C@]23CC[C@]4(C)[C@H](CC[C@@H]5[C@@]6(C)CC[C@H](O[C@@H]7OC[C@@H](O)[C@H](O)[C@H]7O)C(C)(C)[C@@H]6CC[C@]54C)[C@H]2[C@H]1OC3=O` [Compound 44, 3-O-β-D-Xylopyranoside of 28-Oxyallobetulin], the concentration for half-maximal inhibition (IC50) in test [1], in test [3] and in test [4] was greater than 100 µM in each case.

In the case of `CC1(C)CC[C@]23CC[C@]4(C)[C@H](CC[C@@H]5[C@@]6(C)CC[C@H](O[C@@H]7O[C@H](CO)[C@H](O)[C@H](O)[C@H]7O)C(C)(C)[C@@H]6CC[C@]54C)[C@H]2[C@H]1OC3=O` [Compound 42, 3-O-β-D-Galactopyranoside of 28-Oxyallobetulin], the IC50 in test [1], in test [3] and in test [4] was greater than 100 µM throughout.

On to `C[C@@H]1O[C@@H](O[C@H]2CC[C@]3(C)[C@H]4CC[C@@H]5[C@H]6[C@H]7OC[C@@]6(CCC7(C)C)CC[C@@]5(C)[C@]4(C)CC[C@H]3C2(C)C)[C@H](O)[C@H](O)[C@H]1O` [Compound 34, 3-O-α-L-Rhamnopyranoside of Allobetulin], for which the concentration for half-maximal inhibition (IC50) in test [1] is 75 ± 5 µM; in test [3], greater than 100 µM; in test [4], greater than 100 µM.

As to `C=C(C)[C@@H]1CC[C@]2(COC(C)=O)CC[C@]3(C)[C@H](CC[C@@H]4[C@@]5(C)CC[C@H](OC(C)=O)C(C)(C)[C@@H]5CC[C@]43C)[C@@H]12` [Compound 4, 3,28-Diacetoxybetulin], the half-inhibitory concentration (IC50) in test [1], in test [2], in test [3] and in test [4] was greater than 95 µM each time.

With `CC1(C)CC[C@]23CC[C@]4(C)[C@H](CC[C@@H]5[C@@]6(C)CC[C@H](O)C(C)(C)[C@@H]6CC[C@]54C)[C@H]2[C@H]1OC3` [Compound 31, Allobetulin], the IC50 in test [1], in test [3] and in test [4] was greater than 100 µM each time.

Turning to `C=C(C)[C@@H]1CC[C@]2(C(=O)O)CC[C@]3(C)[C@H](CC[C@@H]4[C@@]5(C)CC[C@H](O[C@@H]6O[C@H](CO)[C@H](O)[C@H](O)[C@H]6O)C(C)(C)[C@@H]5CC[C@]43C)[C@@H]12` [Compound 28, 3-O-β-D-Galactopyranoside of Betulinic Acid], the IC50 in test [1], in test [3] and in test [4] was greater than 100 µM each time.

In the case of `CC1(C)CCC23CCC4(C)C(CCC5C6(C)CCC(OC7OC(CO)C(O)C(O)C7O)C(C)(C)C6CCC54C)C2C1OC3=O` [Compound 39, 3-O-β-D-Glucopyranoside of 28-Oxyallobetulin], the IC50 in test [1], in test [3] and in test [4] was greater than 100 µM each time.

With `C=C(C)[C@@H]1CC[C@]2(CO)CC[C@]3(C)[C@H](CC[C@@H]4[C@@]5(C)CC[C@H](O[C@@H]6O[C@H](CO)[C@H](O)[C@H](O)[C@H]6O)C(C)(C)[C@@H]5CC[C@]43C)[C@@H]12` [Compound 25, 3-O-β-D-Galactopyranoside of Betulin], the half-inhibitory concentration (IC50) in test [1], in test [3] and in test [4] was greater than 100 µM throughout.

As to `CC1(C)CCC23CCC4(C)C(CCC5C6(C)CCC(OC7OCC(O)C(O)C7O)C(C)(C)C6CCC54C)C2C1OC3` [Compound 35, 3-O-α-D-Arabinopyranoside of Allobetulin], the IC50 in test [1], in test [3] and in test [4] was greater than 100 µM each time.

As to `CC1(C)CC[C@]23CC[C@]4(C)[C@H](CC[C@@H]5[C@@]6(C)CC[C@H](O[C@@H]7OC[C@@H](O)[C@H](O)[C@H]7O)C(C)(C)[C@@H]6CC[C@]54C)[C@H]2[C@H]1OC3` [Compound 38, 3-O-β-D-Xylopyranoside of Allobetulin], the IC50 in test [1], in test [3] and in test [4] was greater than 100 µM in each case.

In the case of `CC1(C)CC[C@]23CC[C@]4(C)[C@H](CC[C@@H]5[C@@]6(C)CC[C@H](O[C@H]7O[C@H](CO)[C@@H](O)[C@H](O)[C@@H]7O)C(C)(C)[C@@H]6CC[C@]54C)[C@H]2[C@H]1OC3=O` [Compound 43, 3-O-α-D-Mannopyranoside of 28-oxyallobetulin], the IC50 in test [1], in test [3] and in test [4] was greater than 100 µM in each case.

Consider `C=C(C)[C@@H]1CC[C@]2(C(=O)O)CC[C@]3(C)[C@H](CC[C@@H]4[C@@]5(C)CC[C@H](OC(C)=O)C(C)(C)[C@@H]5CC[C@]43C)[C@@H]12` [Compound 24, 3-Acetoxybetulinic Acid], for which the IC50 in test [1] was 57 ± 6 µM; in test [3], 20 ± 2 µM; in test [4] it was 18 ± 2 µM.

For `C=C(C)[C@@H]1CC[C@]2(CO)CC[C@]3(C)[C@H](CC[C@@H]4[C@@]5(C)CC[C@H](O[C@@H]6OC[C@@H](O)[C@H](O)[C@H]6O)C(C)(C)[C@@H]5CC[C@]43C)[C@@H]12` [Compound 27, 3-O-β-D-Xylopyranoside of Betulin], the concentration for half-maximal inhibition (IC50) in test [1] was greater than 100 µM; in test [3], greater than 100 µM; in test [4] it was 90 ± 10 µM.

Regarding `CC1(C)CC[C@]23CC[C@]4(C)[C@H](CC[C@@H]5[C@@]6(C)CC[C@H](O[C@H]7OC[C@@H](O)[C@@H](O)[C@@H]7O)C(C)(C)[C@@H]6CC[C@]54C)[C@H]2[C@H]1OC3=O` [Compound 41, 3-O-α-D-Arabinopyranoside of 28-oxyallobetulin], the IC50 in test [1], in test [3] and in test [4] was greater than 100 µM in each case.
